Experiments:
Assay type in all cases: in vivo
[1] = tested on: DIGSA: Digitaria sanguinalis; test: Pre-emergence herbicide efficacy at 1280 g/ha, DIGSA; details: visual scoring after about 3 weeks vs untreated controls
Summary of the method: (§1)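 Visual scoring after about 3 weeks in the greenhouse, as percent activity relative to untreated pots, where 0% matches controls and 100% means dead plants. Treatment was pre-emergence: WP or EC formulations sprayed onto soil covering the sown seeds, 600 L/ha water plus 0.5% additive.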

[2] = tested on: ALOMY: Alopecurus myosuroides; test: Pre-emergence herbicide efficacy at 80 g/ha, ALOMY; details: scored visually after about 3 weeks
Source text: (§2) Seeds of monocotyledonous and dicotyledonous weed plants and crop plants were placed in plastic or organic planting pots and covered with soil. The compounds of the invention, formulated in the form of wettable powders (WP) or as emulsion concentrates (EC), were then applied to the surface of the covering soil as aqueous suspension or emulsion with addition of 0.5% additive at a water application rate equivalent to 600 l/ha. After the treatment, the pots were placed in a greenhouse and kept under good growth conditions for the test plants. After about 3 weeks, the efficacy of the preparations was scored visually in comparison with untreated controls as percentages. For example, 100% activity=the plants have died, 0% activity=like control plants. Tables D1 to D12 below show the effects of selected compounds of the general formula (I) according to Table 1 on various harmful plants and an application rate corresponding to 80 g/ha, which were obtained by the experimental procedure mentioned above.

VERPE: Veronica persica [3] = test: Post-emergence herbicidal efficacy at 80 g/ha, VERPE; details: visual rating about 3 weeks after treatment vs untreated controls
Summary of the method: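 Activity is a visual score relative to untreated plants, taken about 3 weeks after treatment, where 100% means plant death and 0% means no difference from control. Weeds in sandy loam were sprayed at the one-leaf stage with an aqueous WP or EC preparation carrying 0.5% additive at 600 l/ha.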

VERPE: Veronica persica [4] = test: Pre-emergence herbicide efficacy at 80 g/ha, VERPE; details: scored visually after about 3 weeks
Summary of the method: (§3)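 Pre-emergence soil-surface spray, WP/EC formulation, 0.5% additive, 600 l/ha water volume. Greenhouse, ~3 weeks. Visual % activity vs untreated (100% = dead plants).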

[5] = tested on: MATIN: Matricaria inodora; test: Pre-emergence herbicide efficacy at 1280 g/ha, MATIN; details: visual scoring after about 3 weeks vs untreated controls
Summary of the method: as §1

[6] = tested on: ABUTH: Abutilon theophrasti; test: Post-emergence herbicidal efficacy at 1280 g/ha, ABUTH; details: rated visually after about 3 weeks vs untreated controls, 100% = plants have died, 0% = like control plants
Summary of the method: (§4)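 Plants treated 2–3 weeks post-sowing, one-leaf stage, foliar spray of WP or EC preparations with 0.5% additive at a water rate equivalent to 600 L/ha. Kept under optimum greenhouse conditions ~3 weeks, then scored visually on a 0–100% scale.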

VIOTR: Viola tricolor = test: Pre-emergence herbicide efficacy at 80 g/ha, VIOTR; details: scored visually after about 3 weeks
Source text: as §2

[7] = tested on: ABUTH: Abutilon theophrasti; test: Pre-emergence herbicide efficacy at 80 g/ha, ABUTH; details: scored visually after about 3 weeks
Summary of the method: as §3

[8] = tested on: ALOMY: Alopecurus myosuroides; test: Post-emergence herbicidal efficacy at 1280 g/ha, ALOMY; details: rated visually after about 3 weeks vs untreated controls, 100% = plants have died, 0% = like control plants
Summary of the method: as §4

[9] = tested on: MATIN: Matricaria inodora; test: Pre-emergence herbicide efficacy at 80 g/ha, MATIN; details: scored visually after about 3 weeks
Summary of the method: as §3

KCHSC: Kochia scoparia [10] = test: Pre-emergence herbicide efficacy at 80 g/ha, KCHSC; details: scored visually after about 3 weeks
Source text: as §2

SETVI: Setaria viridis = test: Post-emergence herbicidal efficacy at 1280 g/ha, SETVI; details: visual rating about 3 weeks after treatment vs untreated controls
Summary of the method: as §4

VERPE: Veronica persica [11] = test: Post-emergence herbicidal efficacy at 1280 g/ha, VERPE; details: visual rating about 3 weeks after treatment vs untreated controls
Summary of the method: as §4

[12] = tested on: AMARE: Amaranthus retroflexus; test: Pre-emergence herbicide efficacy at 1280 g/ha, AMARE; details: visual scoring after about 3 weeks vs untreated controls
Summary of the method: as §1

KCHSC: Kochia scoparia [13] = test: Post-emergence herbicidal efficacy at 80 g/ha, KCHSC; details: visual rating about 3 weeks after treatment vs untreated controls
Procedure: (§5) Seeds of monocotyledonous and dicotyledonous weeds and crop plants were placed in sandy loam in plastic or organic planting pots, covered with soil and cultivated in a greenhouse under controlled growth conditions. 2 to 3 weeks after sowing, the test plants were treated at the one-leaf stage. The compounds of the invention, formulated in the form of wettable powders (WP) or as emulsion concentrates (EC), were then sprayed onto the green parts of the plants as aqueous suspension or emulsion with addition of 0.5% additive at a water application rate of 600 l/ha (converted). After the test plants had been kept in the greenhouse under optimum growth conditions for about 3 weeks, the activity of the preparations was rated visually in comparison to untreated controls. For example, 100% activity=the plants have died, 0% activity=like control plants. Tables B1 to B10 below show the effects of selected compounds of the general formula (I) according to Table 1 on various harmful plants and an application rate corresponding to 80 g/ha, which were obtained by the experimental procedure mentioned above.

LOLRI: Lolium rigidum = test: Post-emergence herbicidal efficacy at 1280 g/ha, LOLRI; details: visual rating about 3 weeks after treatment vs untreated controls
Summary of the method: as §4

[14] = tested on: ABUTH: Abutilon theophrasti; test: Post-emergence herbicidal efficacy at 80 g/ha, ABUTH; details: rated visually after about 3 weeks vs untreated controls, 100% = plants have died, 0% = like control plants
Procedure: as §5

[15] = tested on: MATIN: Matricaria inodora; test: Post-emergence herbicidal efficacy at 1280 g/ha, MATIN; details: visual rating about 3 weeks after treatment vs untreated controls
Procedure: Seeds of mono- and dicotyledonous weed plants were placed in plastic pots in sandy loam soil (doubly sown with in each case one species of mono- or dicotyledonous weed plants per pot), covered with soil and cultivated in a greenhouse under controlled growth conditions. 2 to 3 weeks after sowing, the test plants were treated at the one-leaf stage. The compounds of the invention, formulated in the form of wettable powders (WP) or as emulsion concentrates (EC), were applied to the green parts of the plants as aqueous suspension or emulsion with addition of 0.5% additive at a water application rate equivalent to 600 litres per hectare. After the test plants had been kept in the greenhouse under optimum growth conditions for about 3 weeks, the activity of the preparations was rated visually in comparison to untreated controls. For example, 100% activity=the plants have died, 0% activity=like control plants. Tables A1 to A12 below show the effects of selected compounds of the general formula (I) according to Table 1 on various harmful plants and at an application rate corresponding to 1280 g/ha, which were obtained by the trial procedure specified above.

Row | Compound | Pre-emergence efficacy against DIGSA [1] [%] | Pre-emergence efficacy against ALOMY in % [2] [%] | Post-emergence efficacy against VERPE (VERPE: Veronica persica [3]) [%] | Pre-emergence efficacy against VERPE in % (VERPE: Veronica persica [4]) [%] | Pre-emergence efficacy against MATIN [5] [%] | Post-emergence efficacy at 1280 g/ha against ABUTH in % [6] [%] | Pre-emergence efficacy against VIOTR in % (VIOTR: Viola tricolor) [%] | Pre-emergence efficacy against ABUTH in % [7] [%] | Post-emergence efficacy at 1280 g/ha against ALOMY in % [8] [%] | Pre-emergence efficacy against MATIN in % [9] [%] | Pre-emergence efficacy against KCHSC in % (KCHSC: Kochia scoparia [10]) [%] | Post-emergence efficacy against SETVI (SETVI: Setaria viridis) [%] | Post-emergence efficacy against VERPE (VERPE: Veronica persica [11]) [%] | Pre-emergence efficacy against AMARE [12] [%] | Post-emergence efficacy against KCHSC (KCHSC: Kochia scoparia [13]) [%] | Post-emergence efficacy against LOLRI (LOLRI: Lolium rigidum) [%] | Post-emergence efficacy at 80 g/ha against ABUTH in % [14] [%] | Post-emergence efficacy against MATIN [15] [%]
1 | Fc1cnc(Oc2cccc(Br)c2Cc2ncc(Cl)cn2)nc1 [Example 1-54] | 100 | 80 | 100 | 90 | 100 | 100 | 100 | 100 | 90 | 90 | 100 | 100 | 100 | 100 |  |  |  | 
2 | Clc1cnc(Cc2c(Cl)cccc2Oc2ncc(Cl)cn2)nc1 [Example 1-56] | 100 |  | 100 | 90 | 100 | 90 | 100 | 100 |  | 100 | 90 | 90 | 90 | 100 | 80 | 90 |  | 
3 | FC(F)c1cc(-c2ccccc2Cc2ncc(Cl)cn2)on1 [Example 1-133] | 100 |  | 100 | 90 | 100 | 100 | 80 | 100 | 90 | 80 | 100 | 100 | 100 | 100 | 100 | 100 | 80 | 
4 | N#Cc1cccc(Oc2ncc(F)cn2)c1Cc1ncc(Cl)cn1 [Example 1-59] | 100 | 80 | 90 | 90 | 100 | 100 | 100 | 100 |  | 100 | 100 | 90 | 100 | 100 | 90 |  |  | 100
